According to ChEMBL document CHEMBL1129432, “Structure-activity relationships of a series of novel (piperazinylbutyl)thiazolidinone antipsychotic agents related to 3-[4-[4-(6-fluorobenzo[b]thien-3-yl)-1-piperazinyl]butyl]-2,5,5- trimethyl-4-thiazolidinone maleate” (J Med Chem, 1996):
pIC50: −log10 of the molar value.

Key:
[1] = molecular target: T1, 5-hydroxytryptamine receptor 1A (Rattus norvegicus, UniProt P19327); assay: Binding affinity towards serotonin 5-HT1A receptor was determined in rat hippocampus using [3H]8-OH-DPAT as ligand; format: tissue-based
T1 sequence (P19327 whole entry): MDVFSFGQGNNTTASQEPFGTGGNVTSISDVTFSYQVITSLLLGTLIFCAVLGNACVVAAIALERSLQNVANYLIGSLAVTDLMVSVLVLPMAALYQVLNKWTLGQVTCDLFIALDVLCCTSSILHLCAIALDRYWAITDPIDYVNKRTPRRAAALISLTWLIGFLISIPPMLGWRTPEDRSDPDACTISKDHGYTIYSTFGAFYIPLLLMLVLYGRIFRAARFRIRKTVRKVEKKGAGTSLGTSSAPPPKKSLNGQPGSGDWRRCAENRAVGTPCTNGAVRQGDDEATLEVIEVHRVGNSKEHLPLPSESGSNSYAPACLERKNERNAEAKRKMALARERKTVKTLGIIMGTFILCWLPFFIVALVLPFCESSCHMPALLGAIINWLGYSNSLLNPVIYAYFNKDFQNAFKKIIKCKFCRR

D(2) dopamine receptor = D(2) dopamine receptor (Rattus norvegicus, UniProt P61169); assay: Binding affinity towards Dopamine receptor D2 was determined in rat striatum using [3H]- spiperone as radioligand; format: tissue-based
Chain of D(2) dopamine receptor (P61169 whole entry): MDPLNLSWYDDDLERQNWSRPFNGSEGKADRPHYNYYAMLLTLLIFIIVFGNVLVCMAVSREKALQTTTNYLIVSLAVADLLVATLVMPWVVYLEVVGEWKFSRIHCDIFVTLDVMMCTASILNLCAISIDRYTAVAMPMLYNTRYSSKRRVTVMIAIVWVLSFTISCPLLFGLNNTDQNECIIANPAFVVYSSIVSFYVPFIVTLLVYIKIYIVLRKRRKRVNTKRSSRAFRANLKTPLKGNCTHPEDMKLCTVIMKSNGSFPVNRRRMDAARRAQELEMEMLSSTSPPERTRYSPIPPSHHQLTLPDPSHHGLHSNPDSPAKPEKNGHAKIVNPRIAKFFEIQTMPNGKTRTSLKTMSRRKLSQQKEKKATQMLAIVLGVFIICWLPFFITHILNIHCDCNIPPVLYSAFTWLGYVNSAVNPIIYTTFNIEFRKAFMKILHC

[2] = molecular target: Serotonin 2 (5-HT2) receptor (Rattus norvegicus, UniProt P30994+P08909+P14842); assay: Binding affinity towards serotonin 5-HT2 receptor was determined in rat cortex using [3H]spiperone as ligand
[3] = Intraperitoneal effective dose required for inhibition of apomorphine-induced stereotypy in rat; format: functional; settings: ip
Rattus norvegicus [4] = assay: Compound at an intraperitoneal dose of 10 mg/Kg was tested for the inhibition of apomorphine-induced stereotypy in rat; format: functional; design: scale not given: the % may be the effect or the level left
[5] = Compound at an intraperitoneal dose of 40 mg/Kg was tested for the inhibition of apomorphine-induced stereotypy in rat; format: functional; design: scale not given: the % may be the effect or the level left
Rattus norvegicus [6] = assay: Compound at an intraperitoneal dose of 20 mg/Kg was tested for the inhibition of apomorphine-induced stereotypy in rat; format: functional; design: scale not given: the % may be the effect or the level left

Row | Structure (SMILES) | pIC50 [1] | pIC50 (D(2) dopamine receptor) | IC50 [2] [nM] | ED50 [3] [mg/kg] | Activity (Rattus norvegicus [4]) [%] | Activity [5] [%] | Activity (Rattus norvegicus [6]) [%]
1 | CC1(C)SCN(CCCCN2CCN(c3ccc4ccccc4n3)CC2)C1=O | 6.82 |  | 446 |  |  |  | 
2 | CC1(C)SCC(=O)N1CCCCN1CCN(c2cccc(Cl)c2)CC1 |  | 6.08 |  |  |  |  | 
3 | Cc1ccccc1N1CCN(CCCCN2CSCC2=O)CC1 | 7.21 | 5.79 |  |  |  |  | 
4 | Cc1cccc(N2CCN(CCCCN3CSCC3=O)CC2)c1 | 6.85 | 4.90 |  |  |  |  | 
5 | Cc1ccccc1N1CCN(CCCCN2CSC(C)(C)C2=O)CC1 | 7.89 | 5.75 | 569 |  |  |  | 
6 | CC1SC(C)(C)C(=O)N1CCCCN1CCN(c2csc3cc(Cl)ccc23)CC1 (configuration not stated) | 6.07 | 5.33 | 1540 |  |  |  | 
7 | CC1(C)SCC(=O)N1CCCCN1CCN(c2nsc3ccccc23)CC1 | 8.15 | 6.71 | 12 |  |  |  | 
8 | Cc1cccc(N2CCN(CCCCN3CSC(C)(C)C3=O)CC2)c1C | 8.22 | 6.04 | 414 |  |  |  | 
9 | CC1(C)SCN(CCCCN2CCN(c3cc4ccccc4cn3)CC2)C1=O | 6.20 | 5.07 | 85 |  |  |  | 
10 | CC1SC2(CCCC2)C(=O)N1CCCCN1CCN(c2cn(-c3ccccc3)c3ccccc23)CC1 (configuration not stated) | 4.93 | 6.45 | 98.1 | 41.7 |  |  | 
11 | O=C1CSCN1CCCCN1CCN(c2cccc(C(F)(F)F)c2)CC1 | 7.47 | 5.71 |  |  |  |  | 
12 | O=C1CSCN1CCCCN1CCN(c2ccccc2Cl)CC1 | 7.64 | 6.19 |  |  |  |  | 
13 | CC1(C)SCN(CCCCN2CCN(c3cn(-c4ccc(F)cc4)c4ccccc34)CC2)C1=O | 5.63 | 6.88 | 53 | 7.1 |  |  | 
14 | COc1ccccc1N1CCN(CCCCN2C(=O)C(C)(C)SC2(C)C)CC1 | 7.74 |  |  |  |  |  | 
15 | O=C1CSCN1CCCCN1CCN(c2ccc3ccccc3n2)CC1 | 6.48 |  | 641 |  |  |  | 
16 | COc1ccccc1N1CCN(CCCCN2CSC3(CCCC3)C2=O)CC1 | 8.70 | 6.82 | 492 |  |  |  | 
17 | CSc1cccc(N2CCN(CCCCN3C(=O)CSC3(C)C)CC2)c1 | 8.05 | 5.61 | 503 |  |  |  | 
18 | O=C1N(CCCCN2CCN(C3=NS(=O)(=O)c4ccccc43)CC2)CSC12CCCC2 |  |  | > 20000 |  |  |  | 
19 | O=C1N(CCCCN2CCN(c3nsc4ccccc34)CC2)CSC12CCCCC2 | 8.70 |  | 18 |  | 100 |  | 

Row | Structure (SMILES) | pIC50 [1] | pIC50 (D(2) dopamine receptor) | IC50 [2] [nM] | ED50 [3] [mg/kg] | Activity (Rattus norvegicus [4]) [%] | Activity [5] [%] | Activity (Rattus norvegicus [6]) [%]
20 | CC1SC(C)(C)C(=O)N1CCCCN1CCN(c2cn(-c3ccccc3)c3cc(F)ccc23)CC1 (configuration not stated) | 5.09 | 5.96 | 119 |  |  |  | 
21 | Cc1cccc(N2CCN(CCCCN3CSCC3=O)CC2)c1C | 7.08 | 6.11 |  |  |  |  | 
22 | CC1SC(C)(C)C(=O)N1CCCCN1CCN(c2nsc3ccccc23)CC1 (configuration not stated) | 8.15 |  | 2 |  |  | 40 | 0
23 | Cc1cccc(N2CCN(CCCCN3C(=O)C(C)(C)SC3(C)C)CC2)c1 | 7.42 | 5.74 | 439 |  |  |  | 
24 | O=C1CSCN1CCCCN1CCN(c2ccc(F)cc2)CC1 | 6.85 |  |  |  |  |  | 
25 | CC1(C)SCN(CCCCN2CCN(c3cccc(C(F)(F)F)c3)CC2)C1=O | 8.15 | 5.79 | 90 |  |  |  | 
26 | CC1(C)SCC(=O)N1CCCCN1CCN(c2cccc(C(F)(F)F)c2)CC1 |  | 5.95 |  |  |  |  | 
27 | CC1SCN(CCCCN2CCN(c3nsc4ccccc34)CC2)C1=O (configuration not stated) | 7.96 | 7.07 | 5 |  |  | 17 | 0
28 | O=C1CSCN1CCCCN1CCN(c2nc3ccccc3s2)CC1 | 6.44 |  | 8420 |  |  |  | 
29 | COc1ccccc1N1CCN(CCCCN2CSC(C)C2=O)CC1 (configuration not stated) | 6.66 |  |  |  |  |  | 
30 | O=C1N(CCCCN2CCN(c3nsc4ccccc34)CC2)CSC12CCCC2 | 8.70 |  | 3 |  | 90 |  | 
31 | COc1ccccc1N1CCN(CCCCN2CSC(C)(C)C2=O)CC1 | 7.96 | 6.26 | 588 |  |  |  | 
32 | COc1cccc(N2CCN(CCCCN3CSCC3=O)CC2)c1 | 6.86 | 5.13 |  |  |  |  | 
33 | CC1SCC(=O)N1CCCCN1CCN(c2cccc(Cl)c2)CC1 (configuration not stated) | 8.00 | 5.65 |  |  |  |  | 
34 | O=C1CSCN1CCCCN1CCN(c2nsc3ccccc23)CC1 | 7.96 | 6.65 | 7 |  |  |  | 
35 | CC(C)(O)C1SCN(CCCCN2CCN(c3nsc4ccccc34)CC2)C1=O (configuration not stated) | 7.92 | 7.54 | 18.9 | 2.3 |  |  | 
36 | CC1(C)SCN(CCCCN2CCN(c3nc4ccccc4s3)CC2)C1=O | 5.86 |  | 2310 |  |  |  | 
37 | Cc1cc2c(s1)Nc1ccccc1N=C2N1CCN(C)CC1 [OLANZAPINE] |  |  | 47 |  |  |  | 
38 | Cc1nc2n(c(=O)c1CCN1CCC(c3noc4cc(F)ccc34)CC1)CCCC2 [RISPERIDONE] |  |  |  | 3.2 |  |  | 

The next lines start with results.

Row | pIC50 [1] | pIC50 (D(2) dopamine receptor) | IC50 [2] [nM] | Structure (SMILES) | ED50 [3] [mg/kg] | Activity (Rattus norvegicus [4]) [%] | Activity [5] [%] | Activity (Rattus norvegicus [6]) [%]
39 | 7.24 | 5.66 |  | O=C1CSCN1CCCCN1CCN(c2cccc(Cl)c2)CC1 |  |  |  | 
40 | 8.10 |  | 1 | CC1(C)SCN(CCCCN2CCN(c3nsc4ccccc34)CC2)C1=O | 8.9 |  |  | 
41 |  | 6.33 | 45 | O=C1N(CCCCN2CCN(c3cn(-c4ccccc4)c4ccccc34)CC2)CSC12CCCCC2 | 27.4 |  |  | 
42 | 5.04 | 7.74 | 142 | O=C1N(CCCCN2CCN(c3cn(-c4ccc(F)cc4)c4ccccc34)CC2)CSC12CCCCC2 |  |  |  | 
43 | 6.11 | 6.21 | 580 | CC1SC2(CCCC2)C(=O)N1CCCCN1CCN(c2csc3cc(Cl)ccc23)CC1 (configuration not stated) |  |  |  | 
44 | 5.76 | 6.72 | 294 | CC1(C)SCN(CCCCN2CCN(c3cn(-c4ccccc4)c4ccccc34)CC2)C1=O | 19.6 |  |  | 
45 | 6.01 | 6.17 | 1060 | O=C1N(CCCCN2CCN(c3nsc4cc(Cl)ccc34)CC2)CSC12CCCCC2 |  |  | 80 | 0
46 | 8.00 | 6.29 |  | COc1ccccc1N1CCN(CCCCN2C(=O)CSC2(C)C)CC1 |  |  |  | 
47 | 7.77 | 6.70 | 3.5 | CC1(C)SC(C)(C)N(CCCCN2CCN(c3nsc4ccccc34)CC2)C1=O |  |  |  | 
48 | 5.89 | 5.06 |  | O=C1CSCN1CCCCN1CCN(c2ccc(Cl)cc2)CC1 |  |  |  | 
49 |  |  | 271 | CC1SC(C)(C)C(=O)N1CCCCN1CCN(c2nsc3cc(Cl)ccc23)CC1 (configuration not stated) |  |  |  | 
50 | 5.52 | 7.23 | 126 | CC1SC(C)(C)C(=O)N1CCCCN1CCN(c2cn(-c3ccc(F)cc3)c3ccccc23)CC1 (configuration not stated) | 16.4 |  |  | 
51 | 8.52 | 6.87 |  | O=C1C(CC(F)(F)F)SCN1CCCCN1CCN(c2nsc3ccccc23)CC1 (configuration not stated) | 3.3 |  |  | 
52 | 8.70 | 6.61 | 16 | O=C1N(CCCCN2CCN(c3csc4ccccc34)CC2)CSC12CCCC2 |  |  |  | 
53 | 7.92 |  |  | Cc1cccc(N2CCN(CCCCN3CSC(C)(C)C3=O)CC2)c1 |  |  |  | 
54 | 7.59 | 5.43 |  | Cc1cccc(N2CCN(CCCCN3C(=O)CSC3(C)C)CC2)c1 |  |  |  | 
